Source: US8575158B2, “1-phenyl-substituted heterocyclyl derivatives and their use as prostaglandin D2 receptor modulators” (Actelion Pharmaceuticals Ltd., priority 2010, dated 2013)

Target: T1, hCRTH2 receptor (Homo sapiens, UniProt Q9Y5Y4)
T1 construct: expressed in transfected cells; host or cells: HEK293
T1 sequence (Q9Y5Y4 1-395): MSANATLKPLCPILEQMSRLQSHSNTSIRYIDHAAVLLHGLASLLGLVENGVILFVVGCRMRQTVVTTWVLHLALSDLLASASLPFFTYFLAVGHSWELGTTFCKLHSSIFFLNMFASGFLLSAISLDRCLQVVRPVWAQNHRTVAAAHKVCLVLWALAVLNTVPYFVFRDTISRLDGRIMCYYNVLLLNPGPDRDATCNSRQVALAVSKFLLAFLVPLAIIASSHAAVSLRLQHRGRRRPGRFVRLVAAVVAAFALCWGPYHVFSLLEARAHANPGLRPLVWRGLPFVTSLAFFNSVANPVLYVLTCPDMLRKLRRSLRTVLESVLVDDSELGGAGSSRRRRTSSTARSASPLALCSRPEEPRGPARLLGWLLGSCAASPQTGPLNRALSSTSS
Assay: Radioligand displacement assay (3H-PGD2) on hCRTH2 receptor membranes
Assay type: binding
Conditions: antagonistic activity, 3H-PGD2 radioligand displacement, HEK293-hCRTH2 membranes

Row | IC50 | Compound
1 | 12.1 nM | O=C(O)COc1ccc(Cl)cc1C1c2ccccc2CCN1C(=O)CCc1c[nH]c2ccccc12 (racemic) [Example 463]
2 | 1.84 nM | Cn1nc(COC(=O)N2CCc3c(ccc(F)c3F)[C@H]2c2cc(Cl)ccc2OCC(=O)O)c2ccccc21 [Example 321, (S)-1-(2-Carboxymethoxy-5-chloro-phenyl)-5,6-difluoro-3,4-dihydro-1H-isoquinoline-2-carboxylic acid 1-methyl-1H-indazol-3-ylmethyl ester]
3 | 104 nM | N#Cc1ncccc1OCC(=O)N1CCc2ccccc2C1c1cc(Cl)ccc1OCC(=O)O (racemic) [Example 480]
4 | 144 nM | O=C(O)COc1ccc(Cl)cc1[C@@H]1c2ccc(F)cc2CCN1C(=O)CCn1ncc2c(F)cccc21 [Example 399]
5 | 11.1 nM | Cc1cc(C)n(CCOC(=O)N2CCc3cc(F)ccc3[C@H]2c2cc(Cl)ccc2OCC(=O)O)n1 [Example 341, (S)-1-(2-Carboxymethoxy-5-chloro-phenyl)-6-fluoro-3,4-dihydro-1H-isoquinoline-2-carboxylic acid 2-(3,5-dimethyl-pyrazol-1-yl)-ethyl ester]
6 | 25.9 nM | Cn1cc(CCC(=O)N2Cc3ccccc3C2c2cc(Cl)ccc2OCC(=O)O)c2ccccc21 (racemic) [Example 513]
7 | 1.79 nM | O=C(O)COc1ccc(Cl)cc1[C@@H]1c2cccc(F)c2CCN1C(=O)OCc1ccccc1F [Example 359, (S)-1-(2-Carboxymethoxy-5-chloro-phenyl)-5-fluoro-3,4-dihydro-1H-isoquinoline-2-carboxylic acid 2-fluoro-benzyl ester]
8 | 81.3 nM | O=C(O)COc1ccc(Cl)cc1C1c2ccccc2CN1C(=O)C1CC1c1cccc(Cl)c1 (stereo not drawn) [Example 524, (4-Chloro-2-{2-trans-[2-(3-chloro-phenyl)-cyclopropanecarbonyl]-2,3-dihydro-1H-isoindol-1-yl}-phenoxy)-acetic acid]
9 | 8.12 nM | O=C(O)COc1ccc(Cl)cc1C1c2cccc(F)c2CN1C(=O)OCc1ccccc1 (racemic) [Example 501]
10 | 187 nM | COc1ccc([C@@H]2C[C@H]2C(=O)N2CCc3ccccc3C2c2cc(Cl)ccc2OCC(=O)O)cc1 (mixture of isomers) [Example 417]
11 | 210 nM | O=C(O)COc1ccc(Cl)cc1C1c2ccccc2CN1C(=O)CCn1ncc2ccc(F)cc21 (single isomer, unassigned) [Example 546, (4-Chloro-2-{2-[3-(6-fluoro-indazol-1-yl)-propionyl]-2,3-dihydro-1H-isoindol-1-yl}-phenoxy)-acetic acid]
12 | 98.1 nM | Cc1nc2ccccc2n1CCOC(=O)N1CCc2ccccc2[C@H]1c1cc(Cl)ccc1OCC(=O)O [Example 293]
13 | 759 nM | Cc1ccc(OCC(=O)N2CCc3ccccc3C2c2cc(Cl)ccc2OCC(=O)O)cn1 (racemic) [Example 468]
14 | 5.14 nM | O=C(O)COc1ccc(Cl)cc1[C@@H]1c2ccc(F)c(F)c2CCN1C(=O)OCCc1ccccc1 [Example 310, (S)-1-(2-Carboxymethoxy-5-chloro-phenyl)-5,6-difluoro-3,4-dihydro-1H-isoquinoline-2-carboxylic acid phenethyl ester]
15 | 16.5 nM | O=C(O)COc1ccc(Cl)cc1C1c2ccccc2CCN1C(=O)OCc1cccc(Cl)c1 (racemic) [Example 364]
16 | 2.67 nM | O=C(O)COc1ccc(Cl)cc1[C@@H]1c2ccccc2CCN1C(=O)OCCc1cccc(F)c1 [Example 286, (S)-1-(2-Carboxymethoxy-5-chloro-phenyl)-3,4-dihydro-1H-isoquinoline-2-carboxylic acid 2-(3-fluoro-phenyl)-ethyl ester]
17 | 90.1 nM | COc1ccc2[nH]cc(CCC(=O)N3CCc4cc(F)ccc4C3c3cc(Cl)ccc3OCC(=O)O)c2c1 (racemic) [Example 433]
18 | 46.5 nM | Cc1ccccc1CCC(=O)N1CCc2cc(F)ccc2C1c1cc(Cl)ccc1OCC(=O)O (racemic) [Example 435]
19 | 62.7 nM | CCCCNC(=O)N1CCc2ccccc2C1c1cc(Cl)ccc1OCC(=O)O (racemic) [Example 496]
20 | 288 nM | COc1cncc(OCC(=O)N2CCc3ccccc3C2c2cc(Cl)ccc2OCC(=O)O)c1 (racemic) [Example 477]
21 | 11.6 nM | O=C(O)COc1ccc(Cl)cc1C1c2ccccc2CCN1C(=O)CCn1ccc2ccc(Cl)cc21 (racemic) [Example 386]
22 | 9.37 nM | O=C(O)COc1ccc(Cl)cc1C1c2ccc(F)cc2CCN1C(=O)C1CC1c1ccccc1Cl (mixture of isomers) [Example 430, (±)-(4-Chloro-2-{2-[2-(trans-2-chloro-phenyl)-cyclopropanecarbonyl]-6-fluoro-1,2,3,4-tetrahydro-isoquinolin-1-yl}-phenoxy)-acetic acid]
23 | 19.8 nM | O=C(O)COc1ccc(Cl)cc1C1c2ccccc2CCN1C(=O)NCc1cccc(F)c1 (racemic) [Example 491]

Same assay, conditions: antagonistic activity; 3H-PGD2 displacement on HEK293-hCRTH2 membrane fragments

Row | IC50 | Compound
24 | 132 nM | O=C(O)COc1ccc(F)cc1C1c2ccccc2CCN1C(=O)COc1ccccc1F (racemic) [Example 148, (±)-(4-Fluoro-2-{2-[2-(2-fluoro-phenoxy)-acetyl]-1,2,3,4-tetrahydro-isoquinolin-1-yl}-phenoxy)-acetic acid]
25 | 2.52 nM | N#Cc1ccc(OCC(=O)O)c([C@@H]2c3ccccc3CCN2C(=O)OCc2ccccc2)c1 [Example 25, (S)-1-(2-Carboxymethoxy-5-cyano-phenyl)-3,4-dihydro-1H-isoquinoline-2-carboxylic acid benzyl ester]
26 | 28.4 nM | O=C(O)COc1ccc(Cl)cc1C1c2ccccc2CCN1C(=O)CCN1C(=O)CSC1c1ccccc1 (stereo not drawn) [Example 84, (4-Chloro-2-{2-[3-(4-oxo-2-phenyl-thiazolidin-3-yl)-propionyl]-1,2,3,4-tetrahydro-isoquinolin-1-yl}-phenoxy)-acetic acid]
27 | 20 nM | O=C(O)COc1ccc(F)cc1C1c2ccccc2CCN1C(=O)COCc1ccccc1 (racemic) [Example 126, (±)-{2-[2-(2-Benzyloxy-acetyl)-1,2,3,4-tetrahydro-isoquinolin-1-yl]-4-fluoro-phenoxy}-acetic acid]
28 | 33.4 nM | O=C(O)COc1ccc(Cl)cc1C1c2ccccc2CCN1C(=O)[C@@H]1C[C@H]1c1cccc(Cl)c1 (single isomer, unassigned; diastereoisomer 2) [Example 152, (±)-(4-Chloro-2-{2-[(trans)-2-(3-chloro-phenyl)-cyclopropanecarbonyl]-1,2,3,4-tetrahydro-isoquinolin-1-yl}-phenoxy)-acetic acid (diastereoisomer 2)]
29 | 45.3 nM | O=C(O)COc1ccc(Cl)cc1C1c2ccccc2CCN1C(=O)[C@@H]1C[C@H]1c1ccc(Cl)cc1 (mixture of isomers) [Example 157]
30 | 5.29 nM | O=C(O)COc1ccc(Cl)cc1C1c2ccccc2CCN1C(=O)OCc1cc(Cl)ccc1F (racemic) [Example 259]
31 | 152 nM | O=C(O)COc1ccc(F)cc1C1c2ccccc2CCN1C(=O)CCc1ccccc1 (racemic) [Example 123, (±)-{4-Fluoro-2-[2-(3-phenyl-propionyl)-1,2,3,4-tetrahydro-isoquinolin-1-yl]-phenoxy}-acetic acid]
32 | 42 nM | CCCCOC(=O)N1CCc2ccccc2C1c1cc(F)ccc1OCC(=O)O (racemic) [Example 167]
33 | 7.21 nM | O=C(O)COc1ccc(Cl)cc1C1c2ccccc2CCN1C(=O)OCc1ccccc1Br (racemic) [Example 227]
34 | 5.62 nM | Cc1ccccc1COC(=O)N1CCc2ccccc2C1c1cc(Cl)ccc1OCC(=O)O (racemic) [Example 235]
35 | 10.5 nM | O=C(O)COc1ccc(Br)cc1C1c2ccccc2CCN1C(=O)OCc1ccccc1 (racemic) [Example 4, (±)-1-(5-Bromo-2-carboxymethoxy-phenyl)-3,4-dihydro-1H-isoquinoline-2-carboxylic acid benzyl ester]
36 | 36.3 nM | COc1cccc(COCC(=O)N2CCc3ccccc3C2c2cc(F)ccc2OCC(=O)O)c1 (racemic) [Example 195]
37 | 13.1 nM | O=C(O)COc1ccc(Cl)cc1C1c2ccccc2CCN1C(=O)OCC1CCCC1 (racemic) [Example 264]
38 | 296 nM | COc1ccc2[nH]c(CC(=O)N3CCc4ccccc4C3c3cc(Cl)ccc3OCC(=O)O)cc2c1 (racemic) [Example 99, (±)-(4-Chloro-2-{2-[2-(5-methoxy-1H-indol-2-yl)-acetyl]-1,2,3,4-tetrahydro-isoquinolin-1-yl}-phenoxy)-acetic acid]
39 | 835 nM | O=C(O)COc1ccc(F)cc1C1c2ccccc2CCN1C(=O)/C=C/c1ccccc1F (racemic) [Example 141, (±)-(4-Fluoro-2-{2-[(E)-3-(2-fluoro-phenyl)-acryloyl]-1,2,3,4-tetrahydro-isoquinolin-1-yl}-phenoxy)-acetic acid]
40 | 19.7 nM | COc1cccc2c1CCN(C(=O)OCc1ccccc1)C2c1cc(F)ccc1OCC(=O)O (racemic) [Example 35, (±)-1-(2-Carboxymethoxy-5-fluoro-phenyl)-5-methoxy-3,4-dihydro-1H-isoquinoline-2-carboxylic acid benzyl ester]
41 | 8.75 nM | O=C(O)COc1ccc(Cl)cc1C1c2cccc(F)c2CCN1C(=O)OCc1ccccc1Cl (racemic) [Example 175]
42 | 27 nM | O=C(O)COc1ccc(Cl)cc1C1c2ccccc2CCN1C(=O)CCCc1ccccc1F (racemic) [Example 115, (±)-(4-Chloro-2-{2-[4-(2-fluoro-phenyl)-butyryl]-1,2,3,4-tetrahydro-isoquinolin-1-yl}-phenoxy)-acetic acid]
